Measurements taken from patent publication US9062072B2, “Inhibitors of HIF and angiogenesis” (Emory University, priority 2010, dated 2015).
Like-named read-outs stand apart in the source and are kept apart here.

Tested on: HIF-1-mediated transcription
Assay: HIF-1-mediated transcription under hypoxia, LN229-HRE-Lux luciferase reporter assay
Assay type: cell-based, human
Details: 24 h, LN229-HRE-Lux cells, hypoxia (1% O2), 24 h
Experimental: The synthesized analogues were evaluated for their potential to inhibit HIF-1-mediated transcription under hypoxia (1% O2) using a human glioma cell line LN229-HRE-Lux, which stably expresses a hypoxia-responsive luciferase reporter gene (Table 1-9). […] The compounds were tested in single (n=1) or multiple (n>1) independent experiments each carried out in quadruplicate.
LN229-HRE-luciferase human glioblastoma cells were used to perform the assay. […] 48-well plates were seeded with 3.10^4 cells per well and incubated under normoxic conditions for 24 h. Cells were then pre-treated with different concentrations of KCN-1 or its analogues for 1 h and then transferred to hypoxic conditions. After 24 h, media was aspirated, cells were lysed and reporter activity was measured in the lysate using Luciferase Assay System (Promega, Madison, Wis.) with 20/20^n Luminometer (Promega).

[1] = Homo sapiens, Table 8, results from single runs, read-out: IC50
[2] = Homo sapiens, Table 7, results from single runs, read-out: IC50
[3] = Homo sapiens, Table 1, read-out: IC50
[4] = Homo sapiens, Table 2, read-out: IC50
[5] = Homo sapiens, Table 9, results from single runs
[6] = Homo sapiens, Table 5, read-out: IC50
[7] = Homo sapiens, Table 3, read-out: IC50

## CCCCS(=O)(=O)N(Cc1ccc2c(n1)C=CC(C)(C)O2)c1ccccc1 [Compound 26n, N-((2,2-Dimethyl-2H-pyrano[3,2-b]pyridin-6-yl)methyl)-N-phenylbutane-1-sulfonamide]
[1]
  IC50: 5000 nM

## COc1ccc(N(Cc2ccc3c(n2)C=CC(C)(C)O3)S(=O)(=O)c2ccc(OC)c(OC)c2)cc1OC [Compound 26c, N-(3,4-Dimethoxyphenyl)-N-((2,2-dimethyl-2H-pyrano[3,2-b]pyridin-6-yl)methyl)-3,4-dimethoxybenzenesulfonamide]
[2]
  IC50: > 25000 nM

## CN(Cc1ccc2c(c1)C=CC(C)(C)O2)c1ccccn1 [Compound 3b, (2,2-Dimethyl-2H-chromen-6-ylmethyl)-methyl-pyridin-2-yl-amine]
[3]
  IC50: 8400 nM

## CC1(C)C=Cc2cc(CNc3ccccc3F)ccc2O1 [Compound 2f, (2,2-Dimethyl-2H-chromen-6-ylmethyl)-(2-fluoro-phenyl)-amine]
[3]
  IC50: > 25000 nM

## CC(C)CS(=O)(=O)N(Cc1ccc2c(n1)C=CC(C)(C)O2)c1ccccc1 [Compound 26p, N-((2,2-Dimethyl-2H-pyrano[3,2-b]pyridin-6-yl)methyl)-2-methyl-N-phenylpropane-1-sulfonamide]
[1]
  IC50: 900 nM

## COc1ccc(S(=O)(=O)N(Cc2ccc3c(c2)C=CC(C)(C)O3)C2CCCCC2)cc1OC [Compound 5i, N-Cyclohexyl-N-(2,2-dimethyl-2H-chromen-6-ylmethyl)-3,4-dimethoxy-benzenesulfonamide]
[4]
  IC50: 4000 nM

## COc1ccc(S(=O)(=O)N(Cc2ccc3c(c2)C=CC(C)(C)O3)C2CCCC2)cc1OC [Compound 5g, N-Cyclopentyl-N-(2,2-dimethyl-2H-chromen-6-ylmethyl)-3,4-dimethoxy-benzenesulfonamide]
[4]
  IC50: 500 nM
Homo sapiens, read-out: IC50
  IC50: 1600 nM

## COc1ccc(S(=O)(=O)N(Cc2ccc3c(c2)C=CC(C)(C)O3)C(C)C)cc1OC [Compound 5a, N-(2,2-Dimethyl-2H-chromen-6-ylmethyl)-N-isopropyl-3,4-dimethoxy-benzenesulfonamide]
[4]
  IC50: 3100 nM

## COc1ccc(S(=O)(=O)N(Cc2cnc3c(c2)C=CC(C)(C)O3)c2ccccc2)cc1OC [Compound 20a, N-((2,2-Dimethyl-2H-pyrano[2,3-b]pyridin-6-yl)methyl)-3,4-dimethoxy-N-phenylbenzenesulfonamide]
Homo sapiens, Table 6, read-out: IC50
  IC50: 2500 nM
Homo sapiens, read-out: IC50
  IC50: 2500 nM

## COc1ccc(S(=O)(=O)N(Cc2cc3c(cn2)OC(C)(C)C=C3)C2CCCCC2)cc1OC [Compound 36d, N-Cyclohexyl-N-((2,2-dimethyl-2H-pyrano[2,3-c]pyridin-6-yl)methyl)-3,4-dimethoxybenzenesulfonamide]
[5]
  IC50: 5800 nM

## CCCCN(Cc1ccc2c(c1)C=CC(C)(C)O2)S(=O)(=O)c1ccc(OC)c(OC)c1 [Compound 5c, N-Butyl-N-(2,2-dimethyl-2H-chromen-6-ylmethyl)-3,4-dimethoxy-benzenesulfonamide]
[4]
  IC50: 3300 nM
Homo sapiens, read-out: IC50
  IC50: 3300 nM

## Cc1ccc(NCc2ccc3c(c2)C=CC(C)(C)O3)c(C)c1 [Compound 2c, (2,2-Dimethyl-2H-chromen-6-ylmethyl)-(2,4-dimethyl-phenyl)-amine]
[3]
  IC50: > 25000 nM

## COc1ccc(S(=O)(=O)N(Cc2ccc3c(c2)CC(C)(C)O3)c2ccccc2)cc1OC [Compound 16a, N-((2,2-Dimethyl-2,3-dihydrobenzofuran-5-yl)methyl)-3,4-dimethoxy-N-phenylbenzenesulfonamide]
[6]
  IC50: 500 nM

## COc1ccc(S(=O)(=O)N(Cc2ccc3c(c2)CC(C)(C)O3)C2CCCCCC2)cc1OC [Compound 16b, N-Cycloheptyl-N-((2,2-dimethyl-2,3-dihydrobenzofuran-5-yl)methyl)-3,4dimethoxybenzenesulfonamide]
[6]
  IC50: 9100 nM
Homo sapiens, read-out: IC50
  IC50: 9100 nM

## CC1(C)C=Cc2nc(CN(c3ccccc3)S(=O)(=O)C3CC3)ccc2O1 [Compound 26m, N-((2,2-Dimethyl-2H-pyrano[3,2-b]pyridin-6-yl)methyl)-N-phenylcyclopropanesulfonamide]
[1]
  IC50: > 25000 nM

## COc1ccc(S(=O)(=O)N(Cc2ccc3c(n2)C=CC(C)(C)O3)c2ccc(F)cc2)cc1OC [Compound 26j, N-((2,2-dimethyl-2H-pyrano[3,2-b]pyridin-6-yl)methyl)-N-(4-fluorophenyl)-3,4-dimethoxybenzenesulfonamide]
[2]
  IC50: 5700 nM

## CC1(C)C=Cc2cc(CNc3ccc(C(=O)O)cc3)ccc2O1 [Compound 2d, 4-[(2,2-Dimethyl-2H-chromen-6-ylmethyl)-amino]-benzoic acid]
[3]
  IC50: > 25000 nM

## C#CCN(Cc1ccc2c(c1)C=CC(C)(C)O2)S(=O)(=O)c1ccc(OC)c(OC)c1 [Compound 5b, N-(2,2-Dimethyl-2H-chromen-6-ylmethyl)-3,4-dimethoxy-N-prop-2-ynyl-benzenesulfonamide]
[4]
  IC50: 1300 nM
Homo sapiens, read-out: IC50
  IC50: 1300 nM

## CC1(C)C=Cc2cc(CN(c3ccccc3)S(=O)(=O)c3cc(Cl)ccc3Cl)ccc2O1 [Compound 5l, 2,5-Dichloro-N-((2,2-dimethyl-2H-chromen-6-yl)methyl)-N-phenylbenzenesulfonamide]
[7]
  IC50: 2100 nM

## COc1ccc(S(=O)(=O)N(Cc2ccc3c(c2)C=CC(C)(C)O3)C2CC2)cc1OC [Compound 5h, Cyclopropyl-N-(2,2-dimethyl-2H-chromen-6-ylmethyl)-3,4-dimethoxy-benzenesulfonamide]
Table 2, read-out: IC50
  IC50: 1500 nM

## CC1(C)C=Cc2cc(CN(c3ccccc3)S(=O)(=O)c3ccc(Br)cc3OC(F)(F)F)ccc2O1 [Compound 5m, 4,4-Bromo-N-((2,2-dimethyl-2H-chromen-6-yl)methyl)-N-phenyl-2-(trifluoromethoxy)benzenesulfonamide]
[7]
  IC50: > 25000 nM

## COc1ccc(N(C)Cc2ccc3c(c2)C=CC(C)(C)O3)cc1OC [Compound 3a, (3,4-Dimethoxy-phenyl)-(2,2-dimethyl-2H-chromen-6-ylmethyl)-methylamine]
[3]
  IC50: 5000 nM

## CCCCN(Cc1ccc2c(c1)CC(C)(C)O2)S(=O)(=O)c1ccc(OC)c(OC)c1 [Compound 16d, N-Butyl-N-((2,2-dimethyl-2,3-dihydrobenzofuran-5-yl)methyl)-3,4-dimethoxybenzenesulfonamide]
[6]
  IC50: 600 nM

## CC1(C)C=Cc2cc(CN(c3ccccc3)S(=O)(=O)c3ccc([N+](=O)[O-])cc3)ncc2O1 [Compound 36b, N-((2,2-Dimethyl-2H-pyrano[2,3-c]pyridin-6-yl)methyl)-4-nitro-N-phenylbenzenesulfonamide]
[5]
  IC50: 1800 nM
Homo sapiens
  IC50: 1800 nM

## Cc1ccc(N(C)Cc2ccc3c(c2)C=CC(C)(C)O3)c(C)c1 [Compound 3c, (2,2-Dimethyl-2H-chromen-6-ylmethyl)-(2,4-dimethyl-phenyl)-methyl-amine]
[3]
  IC50: 2600 nM
Homo sapiens, read-out: IC50
  IC50: 2600 nM

## CC1(C)C=Cc2nc(CN(c3ccccc3)S(=O)(=O)c3cccc4cccnc34)ccc2O1 [Compound 26s, N-((2,2-Dimethyl-2H-pyrano[3,2-b]pyridin-6-yl)methyl)-N-phenylquinoline-8-sulfonamide]
[1]
  IC50: 900 nM
Homo sapiens, read-out: IC50
  IC50: 900 nM

## C=CCN(Cc1ccc2c(c1)C=CC(C)(C)O2)S(=O)(=O)c1ccc(OC)c(OC)c1 [Compound 5e, N-Allyl-N-(2,2-dimethyl-2H-chromen-6-ylmethyl)-3,4-dimethoxy-benzenesulfonamide]
[4]
  IC50: 3400 nM

## COc1ccc(S(=O)(=O)N(Cc2ccc3c(c2)CC(C)(C)O3)C(C)C)cc1OC [Compound 16c, N-((2,2-dimethyl-2,3-dihydrobenzofuran-5-yl)methyl)-N-isopropyl-3,4-dimethoxybenzenesulfonamide]
[6]
  IC50: 1500 nM

## COc1ccc(S(=O)(=O)N(Cc2ccc3c(c2)CC(C)(C)O3)C2CCCC2)cc1OC [Compound 16f, N-Cyclopentyl-N-((2,2-dimethyl-2,3-dihydrobenzofuran-5-yl)methyl)-3,4-dimethoxybenzenesulfonamide]
[6]
  IC50: 400 nM
Homo sapiens, read-out: IC50
  IC50: 400 nM

## COc1ccc(S(=O)(=O)N(Cc2ccc3c(n2)C=CC(C)(C)O3)C2CCCC2)cc1OC [Compound 26d, N-Cyclopentyl-N-((2,2-dimethyl-2H-pyrano[3,2-b]pyridin-6-yl)methyl)-3,4-dimethoxybenzenesulfonamide]
[2]
  IC50: 600 nM

## COc1ccc(S(=O)(=O)N(Cc2cc3c(cn2)OC(C)(C)C=C3)c2ccccc2)cc1 [Compound 36a, N-((2,2-Dimethyl-2H-pyrano[2,3-c]pyridin-6-yl)methyl)-4-methoxy-N-phenylbenzenesulfonamide]
Homo sapiens, Table 9, results from single runs, read-out: IC50
  IC50: 1400 nM
Homo sapiens, read-out: IC50
  IC50: 1420 nM

## Cc1cc(C)cc(S(=O)(=O)N(Cc2ccc3c(c2)C=CC(C)(C)O3)c2ccccc2)c1 [Compound 5k, N-((2,2-Dimethyl-2H-chromen-6-yl)methyl)-3,5-dimethyl-N-phenylbenzenesulfonamide]
[7]
  IC50: 500 nM
Homo sapiens, read-out: IC50
  IC50: 600 nM

## CCCS(=O)(=O)N(Cc1ccc2c(n1)C=CC(C)(C)O2)c1ccccc1 [Compound 26o, N-((2,2-Dimethyl-2H-pyrano[3,2-b]pyridin-6-yl)methyl)-N-phenylpropane-1-sulfonamide]
[1]
  IC50: 6400 nM
